{
  "source": "patent EP4768479A1",
  "about": "(Hubei Bio-Pharmaceutical Industrial Technological Institute …, priority 2023, dated 2025)",
  "data": [
    {"molecular_target": "T1, AT2R (Homo sapiens, UniProt P50052)", "T1 construct": "purchased Cisbio #C1TT1AT2", "T1 sequence (P50052 1-363)": "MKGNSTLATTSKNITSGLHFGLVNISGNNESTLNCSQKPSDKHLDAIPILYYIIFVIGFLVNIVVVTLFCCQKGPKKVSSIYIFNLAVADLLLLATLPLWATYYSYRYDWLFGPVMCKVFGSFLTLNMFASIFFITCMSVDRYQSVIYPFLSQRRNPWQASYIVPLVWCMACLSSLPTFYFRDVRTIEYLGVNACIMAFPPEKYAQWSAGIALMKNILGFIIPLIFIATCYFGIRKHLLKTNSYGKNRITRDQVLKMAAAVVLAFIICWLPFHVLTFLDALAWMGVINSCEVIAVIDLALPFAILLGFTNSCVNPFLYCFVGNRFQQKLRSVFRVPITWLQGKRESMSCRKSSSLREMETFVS", "assay": "Binding assay of compounds to AT2R (Tag-lite HTRF ligand binding kit)", "protocol": "The assay was performed in accordance with the manufacturer instructions of Angiotensin AT2 Receptor Ligand Binding Assay Kit (#C1TT1AT2, Cisbio). First, a 10 mM compound stock solution was diluted in a gradient at a 5× dilution ratio (including 10 concentrations, each with two replicates). 160 nL of compounds at different concentrations was added to a 384-well plate. 40 µL of 1× TLB (TLB: Tag-lite buffer) was added to each well, and the mixture was shaken at room temperature for 15 minutes. A 15 mL centrifuge tube added with 5 mL of 1×TLB was prepared in advance. The frozen labeled cells were thawed in a water bath at 37°C (for 1 to 2 minutes), and the thawed cells were quickly transferred to the above 15 mL centrifuge tube. The mixture was mixed well and centrifuged at 1,000 g at room temperature for 5 minutes. The supernatant was removed, and the cells were resuspended by adding 2.7 mL 1× TLB. A new 384-well plate was taken, and 10 µL of mixed cells were added into the corresponding wells according to the assay design. 5 µL of 4× compound solution and 5 µL of 4× Tag-lite red fluorescent labeled ligand were added to each well. After incubation at room temperature for 1 hour, data were read using EnVision with an HTRF mode. The […] at 665nM and 615nM in each well were read respectively, and the ratio was calculated (Ratio=A665nM/B615nM). The IC50 value was calculated by means of GraphPad Prism8 software, where X represents logarithmic value of compound concentration; and Y represents ratio of A665nM/B615nM.", "units": {"IC50": "nM"}, "values": [
      {"smiles": "COC(=O)NS(=O)(=O)c1sc(CC(C)C)c(F)c1-c1ccc(Cn2ccnc2Cl)cc1", "note": "[Compound I-1, Methyl ((3-(4-((2-chloro-1H-imidazol-1-yl)methyl)phenyl)-4-fluoro-5-isobutylthiophen-2-yl)sulfonyl) carbamate]", "IC50": 6.67},
      {"smiles": "COC(=O)NS(=O)(=O)c1sc(CC(C)C)c(F)c1-c1ccc(Cn2ccnc2C(F)(F)F)cc1", "note": "[Compound I-2, Methyl ((4-fluoro-5-isobutyl-3-(4-((2-(trifluoromethyl)-1H-imidazol-1-yl)methyl)phenyl)thiophen-2-yl)sulfonyl) carbamate]", "IC50": 6.56},
      {"smiles": "CCCCOC(=O)NS(=O)(=O)c1sc(CC(C)C)c(F)c1-c1ccc(Cn2ccnc2C(C)(C)O)cc1", "note": "[Compound I-3, Butyl ((4-fluoro-3-(4-((2-(2-hydroxypropan-2-yl)-1H-imidazol-1-yl)methyl)phenyl)-5-isobutylthiophen-2-yl)sulfonyl)carbamate]", "IC50": 3.21},
      {"smiles": "CCCCOC(=O)NS(=O)(=O)c1sc(CC(C)C)c(F)c1-c1ccc(Cn2ccnc2C(F)(F)F)cc1", "note": "[Compound I-4, Butyl ((4-fluoro-5-isobutyl-3-(4-((2-(trifluoromethyl)-1H-imidazol-1-yl)methyl)phenyl)thiophen-2-yl)sulfonyl)carbamate]", "IC50": 3.46},
      {"smiles": "Cc1c(CC(C)C)sc(S(=O)(=O)NC(=O)OC[C@H](C)O)c1-c1ccc(Cn2ccnc2C(F)(F)F)cc1", "note": "[Compound I-11, (2S)-2-hydroxypropyl ((5-isobutyl-4-methyl-3-(4-((2-(trifluoromethyl)-1H-imidazol-1-yl)methyl)phenyl)thiophen-2-yl)sulfonyl)carbamate]", "IC50": 4.49},
      {"smiles": "Cc1c(CC(C)C)sc(S(=O)(=O)NC(=O)OC[C@@H](C)O)c1-c1ccc(Cn2ccnc2C(F)(F)F)cc1", "note": "[Compound I-12, (2R)-2-hydroxypropyl ((5-isobutyl-4-methyl-3-(4-((2-(trifluoromethyl)-1H-imidazol-1-yl)methyl)phenyl)thiophen-2-yl)sulfonyl)carbamate]", "IC50": 3.88},
      {"smiles": "Cc1c(CC(C)C)sc(S(=O)(=O)NC(=O)OC[C@H](C)O)c1-c1ccc(Cn2ccnc2Cl)cc1", "note": "[Compound I-16, (2S)-2-hydroxypropyl ((3-(4-((2-chloro-1H-imidazol-1-yl)methyl)phenyl)-4-methyl-5-isobutylthiophen-2-yl)sulfonyl)carbamate]", "IC50": 4.49},
      {"smiles": "Cc1c(CC(C)C)sc(S(=O)(=O)NC(=O)OC[C@@H](C)O)c1-c1ccc(Cn2ccnc2Cl)cc1", "note": "[Compound I-17, (2R)-2-hydroxypropyl ((3-(4-((2-chloro-1H-imidazol-1-yl)methyl)phenyl)-4-methyl-5-isobutylthiophen-2-yl)sulfonyl)carbamate]", "IC50": 3.88},
      {"smiles": "Cc1c(CC(C)C)sc(S(=O)(=O)NC(=O)OCCO)c1-c1ccc(Cn2ccnc2Cl)cc1", "note": "[Compound I-18, 2-hydroxyethyl ((3-(4-((2-chloro-1H-imidazol-1-yl)methyl)phenyl)-5-isobutyl-4-methylthiophen-2-yl)sulfonyl)carbamate]", "IC50": 3.52},
      {"smiles": "Cc1c(CC(C)C)sc(S(=O)(=O)NC(=O)NCc2ccccn2)c1-c1ccc(Cn2ccnc2C(F)(F)F)cc1", "note": "[Compound I-24]", "IC50": 4.41}
    ]}
  ]
}
